How the values were obtained:
Test in all cases: relative viability (nuclei count vs DMSO), 5 days (fraction); higher = more cells survive
Etoposide + Trametinib = compound: COc1cc([C@@H]2c3cc4c(cc3[C@@H](O[C@@H]3O[C@@H]5CO[C@@H](C)O[C@H]5[C@H](O)[C@H]3O)[C@H]3COC(=O)[C@H]23)OCO4)cc(OC)c1O [Etoposide] + CC(=O)Nc1cccc(-n2c(=O)n(C3CC3)c(=O)c3c(Nc4ccc(I)cc4F)n(C)c(=O)c(C)c32)c1 [Trametinib] (partner 0.02 µM)
Method in brief: (§1)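 Lung cancer cell lines, seeded in 1536-well plates, were treated the following day by pin tool with a single drug or with five library-drug doses (not always all listed) in √10 steps on top of a fixed anchor-drug dose. Cells were fixed and nuclei stained in one step after 5 days, and nuclei were counted. Relative viability is the nuclei count for treated wells divided by that for vehicle wells, reported as medians of duplicate plates.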

Etoposide + OSI-027 = compound: COc1cc([C@@H]2c3cc4c(cc3[C@@H](O[C@@H]3O[C@@H]5CO[C@@H](C)O[C@H]5[C@H](O)[C@H]3O)[C@H]3COC(=O)[C@H]23)OCO4)cc(OC)c1O [Etoposide] + COc1cccc2cc(-c3nc([C@H]4CC[C@H](C(=O)O)CC4)n4ncnc(N)c34)[nH]c12 [OSI-027] (partner 0.5 µM)
Method in brief: as §1

Etoposide + Crizotinib = compound: COc1cc([C@@H]2c3cc4c(cc3[C@@H](O[C@@H]3O[C@@H]5CO[C@@H](C)O[C@H]5[C@H](O)[C@H]3O)[C@H]3COC(=O)[C@H]23)OCO4)cc(OC)c1O [Etoposide] + C[C@@H](Oc1cc(-c2cnn(C3CCNCC3)c2)cnc1N)c1c(Cl)ccc(F)c1Cl [Crizotinib] (partner 1 µM)
Method in brief: as §1

Bleomycin + Olaparib = compound: CC1=C(N=C(N=C1N)[C@H](CC(=O)N)NC[C@@H](C(=O)N)N)C(=O)N[C@@H]([C@H](C2=CN=CN2)OC3C(C(C(C(O3)CO)O)O)OC4C(C(C(C(O4)CO)O)OC(=O)N)O)C(=O)N[C@H](C)[C@H]([C@H](C)C(=O)N[C@@H]([C@@H](C)O)C(=O)NCCC5=NC(=CS5)C6=NC(=CS6)C(=O)NCCC[S+](C)C)O [Bleomycin] + O=C(c1cc(Cc2n[nH]c(=O)c3ccccc23)ccc1F)N1CCN(C(=O)C2CC2)CC1 [Olaparib] (partner 8 µM); conditions: main component drawn
Method in brief: as §1

| Cell Line | relative viability (Etoposide + Trametinib; first compound 0.01 µM) | relative viability (Etoposide + Trametinib; first compound 0.03162 µM) | relative viability (Etoposide + Trametinib; first compound 0.1 µM) | relative viability (Etoposide + Trametinib; first compound 0.3162 µM) | relative viability (Etoposide + Trametinib; first compound 1 µM) | relative viability (Etoposide + OSI-027; first compound 0.01 µM) | relative viability (Etoposide + OSI-027; first compound 0.03162 µM) | relative viability (Etoposide + OSI-027; first compound 0.1 µM) | relative viability (Etoposide + OSI-027; first compound 0.3162 µM) | relative viability (Etoposide + OSI-027; first compound 1 µM) | relative viability (Etoposide + Crizotinib; first compound 0.01 µM) | relative viability (Etoposide + Crizotinib; first compound 0.03162 µM) | relative viability (Etoposide + Crizotinib; first compound 0.1 µM) | relative viability (Etoposide + Crizotinib; first compound 0.3162 µM) | relative viability (Etoposide + Crizotinib; first compound 1 µM) | relative viability (Bleomycin + Olaparib; first compound 0.01 µM) | relative viability (Bleomycin + Olaparib; first compound 0.03162 µM) | relative viability (Bleomycin + Olaparib; first compound 0.1 µM) | relative viability (Bleomycin + Olaparib; first compound 0.3162 µM) | relative viability (Bleomycin + Olaparib; first compound 1 µM) |
| --- | --- | --- | --- | --- | --- | --- | --- | --- | --- | --- | --- | --- | --- | --- | --- | --- | --- | --- | --- | --- |
| NCI-H2405 | 0.64 | 0.728 | 0.505 | 0.544 | 0.4 | 0.637 | 0.671 | 0.49 | 0.612 | 0.462 | 0.804 | 0.962 | 0.717 | 0.694 | 0.33 | 0.668 | 0.757 | 0.669 | 0.395 | 0.277 |
| NCI-H2009 | 0.239 | 0.286 | 0.168 | 0.246 | 0.216 | 0.572 | 0.659 | 0.454 | 0.539 | 0.369 | 1.02 | 0.994 | 1.08 | 0.713 | 0.329 | 0.586 | 0.709 | 0.62 | 0.453 | 0.268 |
| HCC-15 | 0.35 | 0.469 | 0.34 | 0.287 | 0.192 | 0.785 | 0.718 | 0.563 | 0.291 | 0.144 | 0.799 | 0.821 | 0.856 | 0.342 | 0.125 | 0.629 | 0.689 | 0.508 | 0.224 | 0.238 |
| HCC-44 | 1.01 | 1.21 | 1.09 | 0.97 | 0.739 | 0.625 | 0.524 | 0.52 | 0.505 | 0.294 | 0.82 | 0.807 | 0.812 | 0.696 | 0.351 | 0.84 | 0.739 | 0.657 | 0.415 | 0.401 |
| COR-L23 | 0.578 | 0.666 | 0.348 | 0.488 | 0.233 | 0.76 | 0.741 | 0.436 | 0.532 | 0.25 | 0.548 | 0.68 | 0.802 | 0.45 | 0.198 | 0.253 | 0.188 | 0.133 | 0.0874 | 0.0995 |
| HCC-78 | 0.585 | 0.759 | 0.648 | 0.403 | 0.299 | 0.387 | 0.392 | 0.345 | 0.376 | 0.281 | 0.31 | 0.334 | 0.241 | 0.227 | 0.181 | 0.592 | 0.617 | 0.652 | 0.488 | 0.487 |
| NCI-H838 | 0.463 | 0.502 | 0.378 | 0.406 | 0.253 | 0.37 | 0.43 | 0.307 | 0.403 | 0.325 | 0.85 | 0.846 | 0.973 | 0.522 | 0.345 | 0.432 | 0.269 | 0.199 | 0.138 | 0.148 |
| NCI-H2126 | 0.539 | 0.683 | 0.427 | 0.455 | 0.312 | 0.742 | 0.662 |  | 0.706 | 0.506 | 0.998 | 1.05 | 0.765 | 0.888 | 0.328 | 0.863 | 0.933 | 0.932 | 0.739 | 0.67 |
| BEN | 0.919 | 1.01 |  | 1.05 | 0.852 | 0.266 | 0.306 |  | 0.297 | 0.318 | 0.701 | 0.827 |  | 0.828 | 0.693 | 0.97 | 1.03 | 0.899 | 0.809 | 0.733 |
| LCLC-103H | 0.607 | 0.748 | 0.742 | 0.64 | 0.582 | 0.515 | 0.516 | 0.392 | 0.55 | 0.424 | 1.09 | 1.02 | 0.984 | 1.06 | 0.988 | 0.717 | 0.735 | 0.724 | 0.56 | 0.384 |
| EKVX | 0.287 | 0.382 | 0.303 | 0.295 | 0.169 | 0.694 | 0.651 | 0.429 | 0.617 | 0.364 | 0.868 | 0.916 | 0.891 | 0.816 | 0.414 | 0.719 | 0.563 | 0.501 | 0.244 | 0.231 |
| LXF-289 | 0.742 | 0.705 | 0.71 | 0.531 | 0.2 | 0.783 | 0.784 | 0.67 | 0.71 | 0.431 | 0.851 | 0.824 | 0.836 | 0.511 | 0.251 | 0.887 | 0.831 | 0.864 | 0.168 | 0.127 |
| NCI-H661 | 0.567 | 0.639 | 0.398 | 0.51 | 0.388 | 0.702 | 0.712 | 0.619 | 0.494 | 0.267 | 1.03 | 0.981 | 0.997 | 0.845 | 0.736 | 0.654 | 0.59 | 0.513 | 0.322 | 0.363 |
| NCI-H1650 | 0.459 | 0.541 | 0.458 | 0.257 | 0.143 | 0.711 | 0.556 | 0.41 | 0.32 | 0.163 | 0.874 | 0.776 | 0.634 | 0.253 | 0.16 | 0.285 | 0.183 | 0.167 | 0.156 | 0.158 |
| NCI-H2085 | 0.484 | 0.643 | 0.423 | 0.266 | 0.271 | 0.542 | 0.705 | 0.533 | 0.676 | 0.373 | 0.91 | 0.871 | 0.827 | 0.5 | 0.326 | 0.665 | 0.716 | 0.47 | 0.376 | 0.383 |

From the supplement of paper PMC10307832
